Values after ≈ are worked out from the molar mass of the structure shown. Read-outs that look alike come from different tables or passages of the source.
What was measured:
gram positive bacteria = experiment: In vitro anti-bacterial activity assay (broth dilution MIC), gram positive bacteria; type: cell-based, S. aureus; settings: 18 h
From the text: (§1) Bacterial infections may be caused by a wide variety of gram positive and gram negative bacteria. Some of the compounds of the invention are useful as antibiotics against organisms which are resistant and/or sensitive to other tetracycline compounds. The antibiotic activity of the tetracycline compounds of the invention may by using the in vitro standard broth dilution method described in Waitz, J. A., CLSI, Document M7-A2, vol. 10, no. 8, pp. 13-20, 2nd edition, Villanova, Pa. (1990).
(§2) The following assay was used to determine the efficacy of the tetracycline compounds against gram positive and gram negative bacteria. 2 mg of each compound was dissolved in 100 μl of DMSO. […] The tetracycline compound solutions were diluted to 50 μL volumes, with a test compound concentration of 0.098 μg/ml. Optical density (OD) determinations were made from fresh log-phase broth cultures of the test strains. Dilutions were made to achieve a final cell density of […] CFU/ml. At OD=1, cell densities for different genera were approximately:
(§3) 50 μl of the cell suspensions were added to each well of microtiter plates. The final cell density was approximately 5×10^5 CFU/ml. These plates were incubated at 35° C. in an ambient air incubator for approximately 18 hours. The plates were read with a microplate reader and were visually inspected when necessary. The MIC was defined as the lowest concentration of the tetracycline compound that inhibits growth. Table 3 includes MIC data for several substituted tetracycline compounds.

gram negative bacteria = experiment: In vitro anti-bacterial activity assay (broth dilution MIC), gram negative bacteria; type: cell-based, E. coli
From the text: as §1, §2, §3

[1] = Mammalian cytotoxicity assay (resazurin), COS-1 cells; type: cell-based; settings: African green monkey, read-out: Cytotox. COS-1
Protocol: (§4) COS-1 and CHO-K1 cell suspensions were prepared, seeded into 96-well tissue culture treated black-walled microtiter plates (density determined by cell line), and incubated overnight at 37° C., in 5% CO2 and approximately 95% humidity. The following day, serial dilutions of compound were prepared under sterile conditions and transferred to cell plates. Cell/Compound plates were incubated under the above conditions for 24 hours. Following the incubation period, media/compound was aspirated and 50 μl of resazurin (0.042 mg/ml in PBS w/Ca and Mg) is added. The plates were then incubated under the above conditions for 2 hours and then placed in the dark at room temperature for an additional 30 minutes. Fluorescence measurements were taken (excitation 535 nm, emission 590 nm). The IC50 (concentration of compound causing 50% growth inhibition) was then calculated. Table 3 includes IC50 data for several substituted tetracycline compounds.

in vitro = type: cell-based; settings: Chinese hamster, Cytotox. CHO-K1
Protocol: as §4

3T3 fibroblast cells = experiment: In vitro phototoxicity assay (neutral red; UV light-treated vs dark control plates); type: cell-based; settings: for Photo Toxicity UV Tox50: UV light 50 minutes; for Photo Toxicity Dark Tox50: dark control plate
Protocol: 3T3 fibroblast cells were harvested and plated at a concentration of 1×10^5 cells/mL and the plates were incubated overnight at 37° C., in 5% CO2 and approximately 95% humidity. On the following day the medium was removed from the plates and replaced with Hanks' Balanced Salt Solution (HBSS). Compound dilutions were made in HBSS and added to the plates. For each compound tested, a duplicate plate was prepared that was not exposed to light as a control for compound toxicity. Plates were then incubated in a dark drawer (for controls), or under UV light (meter reading of 1.6-1.8 mW/cm^2) for 50 minutes. Cells were then washed with HBSS, fresh medium was added, and plates were incubated overnight as described above. The following day neutral red was added as an indicator of cell viability. The plates were then incubated for an additional 3 hours. Cells were then washed with HBSS and blotted on absorbent paper to remove excess liquid. A solution of 50% EtOH, 10% glacial acetic acid was added and after 20 minutes incubation the plate's absorbance at 535 nm was read using a Wallac Victor 5 spectrophotometer. The phototoxicity reflected the difference between the light-treated and control cultures. Table 3 includes phototoxicity (μM) data for several substituted tetracycline compounds.

[2] = Staphylococcus aureus, S. aureus MRSA5, read-out: Median MIC's G+ S. aureus MRSA5
[3] = Staphylococcus aureus, S. aureus RN450, read-out: Median MIC's G+ S. aureus RN450
[4] = Streptococcus pneumoniae, S. pneumoniae 157E-Strep, read-out: Median MIC's G+ S. pneumoniae 157E-Strep
[5] = Escherichia coli, 18 h, E. coli D1 209, read-out: Median MIC's G− E. coli D1 209
[6] = Escherichia coli, 18 h, E. coli MG 1655, read-out: Median MIC's G− E. coli MG 1655
[7] = Escherichia coli, ATCC25922, 18 h, E. coli ATCC 25922, read-out: Median MIC's G− E. coli ATCC 25922
[8] = Pseudomonas aeruginosa, 18 h, P. aeruginosa K201 PAO6609, read-out: Median MIC's G− P. aeruginosa K201 PAO6609

| SMILES | MIC (gram positive bacteria; [2]) [µg/mL] | MIC (gram positive bacteria; [3]) [µg/mL] | MIC (gram positive bacteria; [4]) [µg/mL] | MIC (gram negative bacteria; [5]) [µg/mL] | MIC (gram negative bacteria; [6]) [µg/mL] | MIC (gram negative bacteria; [7]) [µg/mL] | MIC (gram negative bacteria; [8]) [µg/mL] | IC50 at 24 h [1] [µM] | IC50 at 24 h (in vitro) [µM] | Photo Toxicity UV Tox50 (3T3 fibroblast cells) | Photo Toxicity Dark Tox50 (3T3 fibroblast cells) |
| --- | --- | --- | --- | --- | --- | --- | --- | --- | --- | --- | --- |
| CN(C)CCNC(=O)c1cccc(-c2ccc(O)c3c2C[C@H]2C[C@H]4[C@@H](N(C)C)C(O)=C(C(N)=O)C(=O)[C@@]4(O)C(O)=C2C3=O)c1 [A] | 64 (≈ 106 µM) | 8 (≈ 13.2 µM) | 4 (≈ 6.62 µM) | 64 (≈ 106 µM) | 64 (≈ 106 µM) | 64 (≈ 106 µM) | 64 (≈ 106 µM) | > 200 | > 200 | M: >200 uM | M: >200 uM |
| CN1CCN(CC(=O)c2ccc(O)c3c2C[C@H]2C[C@H]4[C@H](N(C)C)C(O)=C(C(N)=O)C(=O)[C@@]4(O)C(O)=C2C3=O)CC1 [BB] | 16 (≈ 28.8 µM) | 2 (≈ 3.61 µM) | 1 (≈ 1.8 µM) | 64 (≈ 115 µM) | 8 (≈ 14.4 µM) | 32 (≈ 57.7 µM) | 64 (≈ 115 µM) | > 136 | > 136 | >135.54 µM | >135.54 µM |
| CN(C)CC(=O)Nc1ccc(-c2ccc(O)c3c2C[C@H]2C[C@H]4[C@H](N(C)C)C(O)=C(C(N)=O)C(=O)[C@@]4(O)C(O)=C2C3=O)cc1 [BC] | 2 (≈ 3.39 µM) | 0.06 (≈ 0.102 µM) | 0.06 (≈ 0.102 µM) | 1 (≈ 1.69 µM) | 2 (≈ 3.39 µM) | 1 (≈ 1.69 µM) | 64 (≈ 108 µM) | > 13.6 | > 13.6 | >135.63 µM | >135.63 µM |
| CN(C)CCc1ccc(O)c2c1C[C@H]1C[C@H]3[C@H](N(C)C)C(O)=C(C(N)=O)C(=O)[C@@]3(O)C(O)=C1C2=O [BD] | 32 (≈ 65.9 µM) | 0.5 (≈ 1.03 µM) | 0.13 (≈ 0.268 µM) | 64 (≈ 132 µM) | 4 (≈ 8.24 µM) | 4 (≈ 8.24 µM) | 64 (≈ 132 µM) | > 121 | > 121 | M: >120.91 uM | M: >120.91 uM |
| COc1ccc(-c2ccc(O)c3c2C[C@H]2C[C@H]4[C@H](N(C)C)C(O)=C(C(N)=O)C(=O)[C@@]4(O)C(O)=C2C3=O)cc1CNCC(N)=O [BE] | 32 (≈ 52.8 µM) | 1 (≈ 1.65 µM) | 0.13 (≈ 0.214 µM) | 64 (≈ 106 µM) | 16 (≈ 26.4 µM) | 64 (≈ 106 µM) | 64 (≈ 106 µM) | > 10.8 | > 10.8 | >107.82 µM | >107.82 µM |
| CN(C)[C@@H]1C(O)=C(C(N)=O)C(=O)[C@@]2(O)C(O)=C3C(=O)c4c(O)ccc(-c5coc(CN6CCCCC6)c5)c4C[C@H]3C[C@@H]12 [BF] | 1 (≈ 1.73 µM) | 0.06 (≈ 0.104 µM) | 0.06 (≈ 0.104 µM) | 0.5 (≈ 0.866 µM) | 1 (≈ 1.73 µM) | 0.25 (≈ 0.433 µM) | 64 (≈ 111 µM) | > 42.9 | > 42.9 | >138.34 µM | >138.34 µM |
| COCCNCc1ccc(-c2ccc(O)c3c2C[C@H]2C[C@H]4[C@H](N(C)C)C(O)=C(C(N)=O)C(=O)[C@@]4(O)C(O)=C2C3=O)cc1 [BG] | 1 (≈ 1.73 µM) | 0.06 (≈ 0.104 µM) | 0.06 (≈ 0.104 µM) | 0.5 (≈ 0.866 µM) | 0.5 (≈ 0.866 µM) | 0.25 (≈ 0.433 µM) | 64 (≈ 111 µM) | > 95.6 | 45.3 to 125 | >146.03 µM | >146.03 µM |

From patent US20100022483A1, “Substituted Tetracycline Compounds” (Paratek Pharmaceuticals, Inc., priority 2008, published 2010)
